Reference: US6683103B2, “Sulfonamides for treatment of endothelin-mediated disorders” (Texas Biotechnology Corporation, priority 1997, dated 2004)
Like-named read-outs stand apart in the source and are kept apart here. Blank lines part the entries; values can stand above or below the compound they belong to.

How the values were obtained:
human ETA receptors = molecular target: T1, human ETA receptors (Homo sapiens, UniProt P25101); test: Binding Test #1: inhibition of 125I-ET-1 binding to ETA receptors (TE 671 cell membranes); settings: for IC50: read-out: ETA
T1 construct: endogenous in cells; host or cells: TE 671 cells (ATCC HTB 139)
T1 sequence (P25101 21-427): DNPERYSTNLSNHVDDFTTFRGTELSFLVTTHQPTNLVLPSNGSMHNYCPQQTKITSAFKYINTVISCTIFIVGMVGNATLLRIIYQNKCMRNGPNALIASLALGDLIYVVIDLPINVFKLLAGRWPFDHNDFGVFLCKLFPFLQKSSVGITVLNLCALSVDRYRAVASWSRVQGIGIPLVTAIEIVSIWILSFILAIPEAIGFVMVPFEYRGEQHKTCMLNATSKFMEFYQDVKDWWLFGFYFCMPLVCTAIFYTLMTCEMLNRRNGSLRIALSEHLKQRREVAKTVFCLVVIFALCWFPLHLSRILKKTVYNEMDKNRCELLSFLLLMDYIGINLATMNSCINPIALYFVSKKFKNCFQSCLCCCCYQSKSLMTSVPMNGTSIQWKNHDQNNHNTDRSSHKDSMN
From the text: (§1) Compounds that are potential endothelin antagonists are identified by testing their ability to compete with ^125I-labeled ET-1 for binding to human ETA receptors or ETB receptors present on isolated cell membranes. The effectiveness of the test compound as an antagonist or agonist of the biological tissue response of endothelin can also be assessed by measuring the effect on endothelin induced contraction of isolated rat thoracic aortic rings. The ability of the compounds to act as antagonists or agonists for ETB receptors can be assess by testing the ability of the compounds are to inhibit endothelin-1 induced prostacyclin release from cultured bovine aortic endothelial cells.
A. Endothelin Binding Inhibition—Binding Test #1: Inhibition of Binding to ETA Receptors
TE 671 cells (ATCC Accession No. HTB 139) express ETA receptors. These cells were grown to confluence in T-175 flasks. Cells from multiple flasks were collected by scraping, pooled and centrifuged for 10 min at 190×g. The cells were resuspended in phosphate buffered saline (PBS) containing 10 mM EDTA using a Tenbroeck homogenizer. The suspension was centrifuged at 4° C. at 57,800×g for 15 min, the pellet was resuspended in 5 ml of buffer A (5 mM HEPES buffer, pH 7.4 containing aprotinin (100 KIU/ml)) and then frozen and thawed once. 5 ml of Buffer B (5 mM HEPES Buffer, pH 7.4 containing 10 mM MnCl2 and 0.001% deoxyribonuclease Type 1) was added, the suspension mixed by inversion and then incubated at 37° C. for 30 minutes. The mixture was centrifuged at 57,800×g as described above, the pellet washed twice with buffer A and then resuspended in buffer C (30 mM HEPES buffer, pH 7.4 containing aprotinin (100 KIU/ml) to give a final protein concentration of 2 mg/ml and stored at −70° C. until use.
The membrane suspension was diluted with binding buffer (30 mM HEPES buffer, pH 7.4 containing 150 mM NaCl, 5mM MgCl2, 0.5% Bacitracin) to a concentration of 8 μg/50 μl. ^125I-endothelin-1 (3,000 cpm, […]) was added to 50 μL of either: (A) endothelin-1 (for non specific binding) to give a final concentration 80 nM); (B) binding buffer (for total binding); or (C) a test compound (final concentration 1 nM to 100 μM). The membrane suspension (50 μL), containing up to 8 μg of membrane protein, was added to each of (A), (B), or (C). Mixtures were shaken, and incubated at 4° C. for 16-18 hours, and then centrifuged at […] for 25 min at 2,500×g. Alternatively, the incubation was conducted at 24° C. […] This, must be kept in mind when comparing IC50 concentrations among compounds provided herein.
The supernatant, containing unbound radioactivity, was decanted and the pellet counted on a Genesys multiwell gamma counter. The degree of inhibition of binding (D) was calculated according to the following equation: [formula]
Each test was generally performed in triplicate.

human ETB receptor = molecular target: T2, human ETB receptor (Homo sapiens, UniProt P24530); test: Binding Test #2: inhibition of 125I-ET-1 binding to ETB receptors (transfected COS7 cell membranes); settings: read-out: ETB
T2 construct: expressed in transfected cells; host or cells: COS7 cells
T2 sequence (P24530 27-442): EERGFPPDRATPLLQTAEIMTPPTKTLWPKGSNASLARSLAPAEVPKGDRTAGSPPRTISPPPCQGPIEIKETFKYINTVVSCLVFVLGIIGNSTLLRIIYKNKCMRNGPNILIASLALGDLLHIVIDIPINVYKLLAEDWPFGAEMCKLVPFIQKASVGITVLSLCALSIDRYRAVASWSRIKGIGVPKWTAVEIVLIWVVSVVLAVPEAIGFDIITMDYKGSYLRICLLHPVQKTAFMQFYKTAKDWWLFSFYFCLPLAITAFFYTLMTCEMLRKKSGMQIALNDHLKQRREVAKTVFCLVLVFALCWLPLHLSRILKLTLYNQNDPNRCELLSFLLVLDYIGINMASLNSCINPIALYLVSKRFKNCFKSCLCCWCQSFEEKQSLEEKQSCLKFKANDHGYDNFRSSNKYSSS
From the text: as §1
B. Endothelin Binding Inhibition—Binding Test #2: Inhibition of Binding to ETB Receptors
COS7 cells were transfected with DNA encoding the ETB receptor, The resulting cells, which express the human ETB receptor, were grown to confluence in T-150 flasks. Membrane was prepared as described above. The binding assay was performed as described above using the membrane preparation diluted with binding buffer to a concentration of 1 μg/50 μl.
Briefly, the COS7 cells, described above, that had been transfected with DNA encoding the ETB receptor and express the human ETB receptor on their surfaces were grown to confluence in T-1 75 flasks. Cells from multiple flasks were collected by scraping, pooled and centrifuged for 10 min at 190×g. The cells were resuspended in phosphate buffered saline (PBS) containing 10 mM EDTA using a Tenbroeck homogenizer. The suspension was centrifuged at 4° C. 57,800 X g for 15 min, the pellet was resuspended in 5 ml of buffer A (5mM HEPES buffer, pH 7.4 containing aprotinin (100 KIU/ml)) and then frozen and thawed once. Five ml of Buffer B (5 mM HEPES Buffer, pH 7.4 containing 10 mM MnCl2 and 0.001% deoxyribonuclease Type 1) was added, the suspension mixed by inversion and then incubated at 37° C. for 30 minutes. The mixture was centrifuged at 57,800×g as described above, the pellet washed twice with buffer A and then resuspended in buffer C (30 mM HEPES buffer, pH 7.4 containing aprotinin (100 KIU/ml) to give a final protein concentration of 2 mg/ml.
The binding assay was performed as described above using the membrane preparation diluted to give 1 μg/50 μl of binding buffer.

[1] = Table 1, † incubation at 24° C.
[2] = Table 3, † incubation at 24° C.

- IC50 (human ETA receptors; [1]): 962 nM
- IC50 (human ETB receptor; [1]): 435 nM
Compound: CCCc1ccc(-c2csc(S(=O)(=O)Nc3onc(C)c3Br)c2)cc1 [N-(4-bromo-3-methyl-5-isoxazolyl)-4-(4-propylphenyl)thiophene-2-sulfonamide]

- IC50 (human ETA receptors; [1]): 31300 nM
- IC50 (human ETB receptor; [1]): 14700 nM
Compound: Cc1ccc(NC(=O)c2c(S(=O)(=O)Nc3onc(C)c3Cl)c3ccccc3n2C)cc1 [N-(4-chloro-3-methyl-5-isoxazolyl)-2-[(4-tolyl)aminocarbonyl]-1-methylindole-3-sulfonamide]

- IC50 (human ETA receptors; Table 2, incubation at 4° C.): 19000 nM
- IC50 (human ETB receptor; Table 2, incubation at 4° C.): 1700 nM
- IC50 (human ETB receptor; Table 2, † incubation at 24° C.): 5620 nM
Compound: Cc1c(C(F)(F)F)noc1NS(=O)(=O)c1ccc(-c2ccccc2)cc1 [N-(4-Methyl-3-trifluoromethyl-5-isoxazolyl)-4-biphenylsulfonamide]

- IC50 (human ETA receptors; [2]): 0.75 nM
Compound: COC(=O)Oc1c(C)cc(C)c(NC(=O)c2sccc2S(=O)(=O)Nc2onc(C)c2Cl)c1C [3-(((3-(((4-chloro-3-methyl-5-isoxazolyl)amino)sulfonyl)-2-thienyl)carbonyl)amino)-2,4,6-trimethylphenyl methyl carbonate]

- IC50 (human ETA receptors; [1]): 1890 ± 431 nM
- IC50 (human ETB receptor; [1]): 54300 ± 2600 nM
Compound: CCc1sc2ccc(C)cc2c1S(=O)(=O)Nc1onc(C)c1Br [N-(4-bromo-3-methyl-5-isoxazolyl)-2-ethyl-5-methylbenzo[b]thiophene-3-sulfonamide]

- IC50 (human ETA receptors; Table 2, incubation at 4° C.): 3300 ± 3500 nM
- IC50 (human ETB receptor; Table 2, incubation at 4° C.): 410 ± 140 nM
Compound: N-(4-bromo-3-methyl-5-isoxazolyl)-2′-methoxyphenyl-4-biphenylsulfonamide

- IC50 (human ETA receptors; Table 1, incubation at 4° C.): 7100 nM
- IC50 (human ETA receptors; [1]): 15800 nM
- IC50 (human ETB receptor; Table 1, incubation at 4° C.): 359 nM
- IC50 (human ETB receptor; [1]): 250 nM
Compound: N-(4-bromo-5-methyl-3-isoxazolyl)-5-(4-methylphenyl)thiophene-2-sulfonamide

- IC50 (human ETA receptors; Table 1, incubation at 4° C.): 381 nM
- IC50 (human ETB receptor; Table 1, incubation at 4° C.): 1100 nM
Compound: COc1ccccc1-c1ccc(S(=O)(=O)Nc2onc(C)c2Br)s1 [N-(4-bromo-3-methyl-5-isoxazolyl)-5-(2-methoxyphenyl)thiophene-2-sulfonamide]

- IC50 (human ETA receptors; Table 1, incubation at 4° C.): 3260 nM
- IC50 (human ETA receptors; [1]): 23400 nM
- IC50 (human ETB receptor; Table 1, incubation at 4° C.): 776 nM
- IC50 (human ETB receptor; [1]): 4700 nM
Compound: COc1cccc(-c2ccc(S(=O)(=O)Nc3onc(C)c3Br)s2)c1 [N-(4-bromo-3-methyl-5-isoxazolyl)-5-(3-methoxyphenyl)thiophene-2-sulfonamide]

- IC50 (human ETA receptors; [1]): 79.5 nM
- IC50 (human ETB receptor; [1]): 3240 nM
Compound: Cc1noc(NS(=O)(=O)c2sccc2CC=Cc2cc3c(cc2CO)OCO3)c1Br [N-(4-bromo-3-methyl-5-isoxazolyl)-3-[2-(hydroxymethyl)-4,5-(methylenedioxy)cinnamyl]thiophene-2-sulfonamide]

- IC50 (human ETA receptors; Table 1, incubation at 4° C.): 1400 nM
- IC50 (human ETB receptor; Table 1, incubation at 4° C.): ~100000 nM
Compound: Cc1noc(NS(=O)(=O)c2c(C)sc(C)c2-c2ccccc2)c1Br [N-(4-bromo-3-methyl-5-isoxazolyl)-2,5-dimethyl-4-phenylthiophene-3-sulfonamide]

- IC50 (human ETA receptors; Table 1, incubation at 4° C.): 3130 nM
Compound: Cc1noc(NS(=O)(=O)c2ccco2)c1C [N-(3,4-dimethyl-5-isoxazolyl)furan-2-sulfonamide]

- IC50 (human ETA receptors; [1]): 3800 nM
Compound: COC(=O)c1cc(OC)c(OC)cc1NC(=O)c1sccc1S(=O)(=O)Nc1onc(C)c1Cl [N-(4-chloro-3-methyl-5-isoxazolyl)2-{[4,5-dimethoxy-2,4,5-di] [N-(4-chloro-3-methyl-5-isoxazolyl)2-{[4,5-dimethoxy-2,4,5-dimethoxy-2-methoxycarbonyl)phenyl]phenylaminocarbonyl}thiophene-3-sulfonamide]

- IC50 (human ETA receptors; [2]): 5.45 nM
Compound: Cc1cc(C)c(OC(N)=O)c(C)c1NC(=O)c1sccc1S(=O)(=O)Nc1onc(C)c1Cl [3-(((3-(((4-chloro-3-methyl-5-isoxazolyl)amino)sulfonyl)-2-thienyl)carbonyl)amino)-2,4,6-trimethyiphenyl carbamate]

- ETA/ETB selectivity (human ETA receptors; Table 3): 6000^∥
- IC50 (human ETA receptors; [2]): 4.26 nM
Compound: Cc1cc(C)c(NC(=O)c2sccc2S(=O)(=O)Nc2onc(C)c2Cl)c(C(=O)c2ccccc2)c1 [N-(2-benzoyl-4,6-dimethylphenyl)-3-(((4-chloro-3-methyl-5-isoxazolyl)amino)sulfonyl)-2-thiophenecarboxamide]

- ETA/ETB selectivity (human ETA receptors; Table 3): 21000^∥
- IC50 (human ETA receptors; [2]): 0.61 nM
Compound: CCC(=O)c1cc(C)cc(C)c1NC(=O)c1sccc1S(=O)(=O)Nc1onc(C)c1Cl [3-(((4-chloro-3-methyl-5-isoxazolyl)amino)sulfonyl)-N-(2,4-dimethyl-6-propionylphenyl)-2-thiophenecarboxamide]

- ETA/ETB selectivity (human ETA receptors; Table 3): 1300^∥
- IC50 (human ETA receptors; [2]): 14.9 nM
Compound: Cc1cc(C)c(NC(=O)c2sccc2S(=O)(=O)Nc2onc(C)c2Cl)c(C(=O)C2CCCCC2)c1 [3-(((4-chloro-3-methyl-5-isoxazolyl)amino)sulfonyl)-N-(2-(cyclohexylcarbonyl)-4,6-dimethylphenyl)-2-thiophenecarboxamide]

- IC50 (human ETA receptors; [1]): 122000 nM
Compound: Cc1ccc(OC(=O)c2sccc2S(=O)(=O)Nc2onc(C)c2Br)cc1 [N-(4-bromo-3-methyl-5-isoxazolyl)-2-[(4-methylphenoxy)carbonyl]thiophene-3-sulfonamide]

- IC50 (human ETA receptors; Table 1, incubation at 4° C.): 367 nM
Compound: COC(=O)c1sccc1S(=O)(=O)Nc1onc(C)c1C [N-(3,4-dimethyl-5-isoxazolyl)-2-(carbomethoxy)thiophene-3-sulfonamide]

- IC50 (human ETA receptors; Table 1, incubation at 4° C.): 383 nM
Compound: Cc1noc(NS(=O)(=O)c2cc(S(=O)(=O)c3ccccc3)cs2)c1Br [N-(4-Bromo-3-methyl-5-isoxazolyl)-4-benzenesulfonylthiophene-2-sulfonamide]

- ETA/ETB selectivity (human ETA receptors; Table 3): 9000^∥
- IC50 (human ETA receptors; [2]): 2.94 nM
Compound: CC(=O)c1cc(C)cc(C)c1NC(=O)c1sc(C)cc1S(=O)(=O)Nc1onc(C)c1Cl [N-(2-acetyl-4,6-dimethylphenyl)-3-(((4-chloro-3-methyl-5-isoxazolyl)amino)sulfonyl)-5-methyl-2-thiophenecarboxamide]
